{"source": "patent US20180221306A1", "about": "“PHARMACEUTICAL COMPOSITIONS OF 5-HYDROXY-2-METHYLNAPHTHALENE-1,4-DIONE” (PellFiCure Pharmaceuticals, Inc., priority 2016, published 2018)", "assay": "Forced degradation: stability of Compound I formulations in selected solvents and Carrier A (HPLC)", "key": {"[1]": {"conditions": "10% HPβCD, 25° C./60% RH, t = 2 week"}}, "note": "Marks after values point to notes of the source that are not given here."}
{"compound": "CC1=CC(=O)c2c(O)cccc2C1=O", "note": "[Compound I, 5-hydroxy-2-methylnaphthalene-1,4-dione]", "values": [{"measurement": "Solution Stability in Selected Solvents, Purity", "setting": "1% TW20, 25° C./60% RH, t = 0", "value": 97.00, "unit": "% Area"}, {"measurement": "Solution Stability in Selected Solvents, Purity", "setting": "1% TW20, 25° C./60% RH, t = 1 week, precipitation observed", "value": "64.23^‡ % Area"}, {"measurement": "Solution Stability in Selected Solvents, Purity", "setting": "1% TW20, 25° C./60% RH, t = 2 week, precipitation observed", "value": "50.47^‡ % Area"}, {"measurement": "Solution Stability in Selected Solvents, Purity", "setting": "1% TW20, 40° C./75% RH, t = 1 week, precipitation observed", "value": "47.19^‡ % Area"}, {"measurement": "Solution Stability in Selected Solvents, Purity", "setting": "1% TW20, 40° C./75% RH, t = 2 week, precipitation observed", "value": "41.25^‡ % Area"}, {"measurement": "Solution Stability in Selected Solvents, Purity", "setting": "1% TW80, 25° C./60% RH, t = 0", "value": 95.11, "unit": "% Area"}, {"measurement": "Solution Stability in Selected Solvents, Purity", "setting": "1% TW80, 25° C./60% RH, t = 1 week, precipitation observed", "value": "57.32^‡ % Area"}, {"measurement": "Solution Stability in Selected Solvents, Purity", "setting": "1% TW80, 25° C./60% RH, t = 2 week, precipitation observed", "value": "47.62^‡ % Area"}, {"measurement": "Solution Stability in Selected Solvents, Purity", "setting": "1% TW80, 40° C./75% RH, t = 1 week, precipitation observed", "value": "42.07^‡ % Area"}, {"measurement": "Solution Stability in Selected Solvents, Purity", "setting": "1% TW80, 40° C./75% RH, t = 2 week, precipitation observed", "value": "40.53^‡ % Area"}, {"measurement": "Solution Stability in Selected Solvents, Purity", "setting": "10% HPβCD, 25° C./60% RH, t = 0", "value": 99.49, "unit": "% Area"}, {"measurement": "Solution Stability in Selected Solvents, Purity", "setting": "10% HPβCD, 25° C./60% RH, t = 1 week", "value": 97.41, "unit": "% Area"}, {"measurement": "Solution Stability in Selected Solvents, % Potency", "setting": "[1]", "value": 91.09, "unit": "%"}, {"measurement": "Solution Stability in Selected Solvents, Purity", "setting": "[1]", "value": 94.73, "unit": "% Area"}, {"measurement": "Solution Stability in Selected Solvents, Purity", "setting": "10% HPβCD, 40° C./75% RH, t = 1 week", "value": 91.22, "unit": "% Area"}, {"measurement": "Solution Stability in Selected Solvents, Purity", "setting": "10% HPβCD, 40° C./75% RH, t = 2 week", "value": 87.69, "unit": "% Area"}, {"measurement": "Solution Stability in Selected Solvents, Purity", "setting": "ACN, 25° C./60% RH, t = 0", "value": 95.56, "unit": "% Area"}, {"measurement": "Solution Stability in Selected Solvents, Purity", "setting": "ACN, 25° C./60% RH, t = 1 week", "value": 93.35, "unit": "% Area"}, {"measurement": "Solution Stability in Selected Solvents, Purity", "setting": "ACN, 25° C./60% RH, t = 2 week", "value": 91.03, "unit": "% Area"}, {"measurement": "Solution Stability in Selected Solvents, Purity", "setting": "ACN, 40° C./75% RH, t = 1 week", "value": 93.33, "unit": "% Area"}, {"measurement": "Solution Stability in Selected Solvents, Purity", "setting": "ACN, 40° C./75% RH, t = 2 week", "value": 93.59, "unit": "% Area"}, {"measurement": "Solution Stability in Selected Solvents, Purity", "setting": "Acetone, 25° C./60% RH, t = 0", "value": 94.35, "unit": "% Area"}, {"measurement": "Solution Stability in Selected Solvents, Purity", "setting": "Acetone, 25° C./60% RH, t = 1 week", "value": 93.49, "unit": "% Area"}, {"measurement": "Solution Stability in Selected Solvents, Purity", "setting": "Acetone, 25° C./60% RH, t = 2 week", "value": 92.27, "unit": "% Area"}, {"measurement": "Solution Stability in Selected Solvents, Purity", "setting": "Acetone, 40° C./75% RH, t = 1 week", "value": 91.94, "unit": "% Area"}, {"measurement": "Solution Stability in Selected Solvents, Purity", "setting": "Acetone, 40° C./75% RH, t = 2 week", "value": 91.52, "unit": "% Area"}, {"measurement": "Stability of the formulation in Carrier A (sesame oil), Purity", "setting": "Carrier A (NF), 25° C./60% RH, t = 3 day", "value": 99.2, "unit": "Area - %"}, {"measurement": "Stability of the formulation in Carrier A (sesame oil), Purity", "setting": "Carrier A (NF), 25° C./60% RH, t = 10 day", "value": 99.4, "unit": "Area - %"}, {"measurement": "Stability of the formulation in Carrier A (sesame oil), Purity", "setting": "Carrier A (NF), 40° C./75% RH, t = 3 day", "value": 98.9, "unit": "Area - %"}, {"measurement": "Stability of the formulation in Carrier A (sesame oil), Purity", "setting": "Carrier A (NF), 40° C./75% RH, t = 10 day", "value": 99.2, "unit": "Area - %"}, {"measurement": "Stability of the formulation in Carrier A (sesame oil), Purity", "setting": "Carrier A (NF: laboratory grade), t = 0, reported from a representative standard", "value": 99.7, "unit": "Area - %"}, {"measurement": "Stability of the formulation in Carrier A (sesame oil), Purity", "setting": "Carrier A (SR), 25° C./60% RH, t = 3 day", "value": 99.5, "unit": "Area - %"}, {"measurement": "Stability of the formulation in Carrier A (sesame oil), Purity", "setting": "Carrier A (SR), 25° C./60% RH, t = 10 day", "value": 99.5, "unit": "Area - %"}, {"measurement": "Stability of the formulation in Carrier A (sesame oil), Purity", "setting": "Carrier A (SR), 40° C./75% RH, t = 3 day", "value": 99.3, "unit": "Area - %"}, {"measurement": "Stability of the formulation in Carrier A (sesame oil), Purity", "setting": "Carrier A (SR), 40° C./75% RH, t = 10 day", "value": 99.3, "unit": "Area - %"}, {"measurement": "Stability of the formulation in Carrier A (sesame oil), Purity", "setting": "Carrier A (SR: super refined grade), t = 0, reported from a representative standard", "value": 99.7, "unit": "Area - %"}, {"measurement": "Solution Stability in Selected Solvents, Purity", "setting": "DCM, 25° C./60% RH, t = 0", "value": 92.84, "unit": "% Area"}, {"measurement": "Solution Stability in Selected Solvents, Purity", "setting": "DCM, 25° C./60% RH, t = 1 week", "value": 93.85, "unit": "% Area"}, {"measurement": "Solution Stability in Selected Solvents, Purity", "setting": "DCM, 25° C./60% RH, t = 2 week", "value": 92.99, "unit": "% Area"}, {"measurement": "Solution Stability in Selected Solvents, Purity", "setting": "DCM, 40° C./75% RH, t = 1 week", "value": 91.88, "unit": "% Area"}, {"measurement": "Solution Stability in Selected Solvents, Purity", "setting": "DCM, 40° C./75% RH, t = 2 week", "value": 81.23, "unit": "% Area"}, {"measurement": "Solution Stability in Selected Solvents, Purity", "setting": "DMSO, 25° C./60% RH, t = 0", "value": 94.08, "unit": "% Area"}, {"measurement": "Solution Stability in Selected Solvents, Purity", "setting": "DMSO, 25° C./60% RH, t = 1 week", "value": 93.47, "unit": "% Area"}, {"measurement": "Solution Stability in Selected Solvents, Purity", "setting": "DMSO, 25° C./60% RH, t = 2 week", "value": 92.47, "unit": "% Area"}, {"measurement": "Solution Stability in Selected Solvents, Purity", "setting": "DMSO, 40° C./75% RH, t = 1 week", "value": 89.28, "unit": "% Area"}, {"measurement": "Solution Stability in Selected Solvents, Purity", "setting": "DMSO, 40° C./75% RH, t = 2 week", "value": 89.26, "unit": "% Area"}, {"measurement": "Solution Stability in Selected Solvents, Purity", "setting": "Diluent, 25° C./60% RH, t = 0", "value": 99.77, "unit": "% Area"}, {"measurement": "Solution Stability in Selected Solvents, Purity", "setting": "Diluent, 25° C./60% RH, t = 1 week", "value": 99.76, "unit": "% Area"}, {"measurement": "Solution Stability in Selected Solvents, Purity", "setting": "Diluent, 25° C./60% RH, t = 2 week", "value": 99.79, "unit": "% Area"}, {"measurement": "Solution Stability in Selected Solvents, Purity", "setting": "Diluent, 40° C./75% RH, t = 1 week", "value": 99.81, "unit": "% Area"}, {"measurement": "Solution Stability in Selected Solvents, Purity", "setting": "Diluent, 40° C./75% RH, t = 2 week", "value": 99.82, "unit": "% Area"}, {"measurement": "Solution Stability in Selected Solvents, Purity", "setting": "EA (poor chromatography observed with ethyl acetate), 25° C./60% RH, t = 0", "value": 80.16, "unit": "% Area"}]}
